This is an account of results in patent publication US8580769B2, “Treatment of obesity, metabolic syndrome, and diabetes with protein kinase C inhibitors” (The United States of America as represented by the …, priority 2011, dated 2013).

Test [1] concerns Het-MλKO mice. Description: clinical parameters in Het-MλKO mice (model of obesity/metabolic syndrome/T2DM). In kind it is in vivo, mouse. The following applies: for hepatic triglycerides / resting (basal) serum insulin levels: 7-day treatment s.c. (ATM 60 mg/kg; ICAPP 0.4 mg/kg); for serum glucose levels following acute insulin treatment: insulin 1 U/kg i.p.; for basal serum glucose levels (before insulin): s.c. once daily (ICAPP 0.4 mg/kg; ICAP 0.5 mg/kg). The source says:
(§1) In Vivo Mouse Studies: Male wild type (WT) and heterozygous muscle-specific PKC-λ knockout (Het-MλKO) mice were generated as described (Farese et al., J. Clin. Invest. 117:2289-2301, 2007) and used at 6-12 months of age, when the O/MS/T2DM phenotype in MλKO mice is well-developed. Mice were housed in a temperature-controlled environment with alternating 12-hour light and dark cycles, and fed ad libitum with standard chow (Harlan Teklad 20/18 with 5% fat, (10% of calories from fat)). All experimental procedures in mice were approved by the Institutional Animal Care and Use Committees of the Roskamp Institute and the University of South Florida College of Medicine, and the James A. Haley Veterans Administration Medical Center Research and Development Committee, Tampa, Fla.
(§2) (ICAPP; prepared by Southern Research, Birmingham, Ala.) at 0.4 mg/kg body weight. On the morning of the eighth day of inhibitor treatment, mice were injected intraperitoneally (IP) with 0.9% saline or saline containing 1 U insulin/kg body weight 15 minutes before sacrifice, an optimal time for studies of insulin stimulation of aPKC and Akt in liver, muscle and adipose tissues (Standaert et al., J. Biol. Chem. 279:24929-24934, 2004; Sajan et al., J. Lipid Res. 50:1133-1145, 2009; Sajan et al., Diabetologia 52:1197-1207, 2009; Farese et al., J. Clin. Invest. 117:2289-2301, 2007). After killing, blood, liver, quadriceps muscle and abdominal adipose tissues were rapidly removed and homogenized in buffer with a POLYTRON® homogenizer.
Measurements of Serum Triglycerides, Cholesterol, Free Fatty Acids, Insulin and Glucose: Serum triglycerides, cholesterol, free fatty acids, insulin and glucose levels were measured as previously described (Sajan et al., J. Lipid Res. 50:1133-1145, 2009; Sajan et al., Diabetologia 52:1197-1207, 2009; Farese et al., J. Clin. Invest. 117:2289-2301, 2007).
Both aPKC inhibitors were tested in a murine model of O/MS/T2DM, a heterozygous muscle-specific PKC-λ knockout (Het-MλKO) mice, wherein defective insulin-stimulated glucose transport in muscle leads to glucose intolerance, systemic insulin resistance, hyperinsulinemia, increased hepatic aPKC activity, activation of hepatic SREBP-1c and IKKβ/NFκB, and thus to increased expression of hepatic enzymes engaged in lipogenesis and cytokine production, and ultimately to hepatosteatosis, abdominal obesity, hypertriglyceridemia, fatty acidemia, hypercholesterolemia, hyperinsulinemia, glucose intolerance, fasting hyperglycemia, and diminished glucose-lowering effects of acutely administered insulin (Sajan et al., J. Lipid Res. 50:1133-1145, 2009; Farese et al., J. Clin. Invest. 117:2289-2301, 2007).

The target of test [2] is T1, Akt2 (Mus musculus, UniProt Q60823).
T1 construct: from tissue; host or cells: mouse liver, quadriceps muscle and abdominal adipose tissue
The test is described as follows: tissue Akt activity in Het-MλKO mice. In kind it is in vivo. The following applies: for Akt activation in adipose tissue / Akt activation in muscle: 7-day treatment s.c. (ATM 60 mg/kg; ICAPP 0.4 mg/kg).
From the text: as §1, §2
Tissue and Immunoprecipitate Preparations: As previously described (Standaert et al., J. Biol. Chem. 279:24929-24934, 2004; Sajan et al., J. Lipid Res. 50:1133-1145, 2009; Sajan et al., Diabetologia 52:1197-1207, 2009; Farese et al., J. Clin. Invest. 117:2289-2301, 2007) hepatocytes and tissues from in vivo experiments were homogenized in ice-cold buffer containing 0.25 M sucrose, 20 mM Tris/HCl (pH 7.5), 2 mM EGTA, 2 mM EDTA, 1 mM phenylmethylsulfonyl fluoride (PMSF), 20 μg/ml leupeptin, 10 μg/ml aprotinin, 2 mM Na4P2O7, 2 mM Na3VO4, 2 mM NaF, and 1 μM microcystin. After centrifugation for 10 minutes at 700×g to remove unbroken cells, debris, nuclei, and floating fat, cell lysates were stored at −70° C. After addition of 1% TRITON® X-100, 0.6% Nonidet and 150 mM NaCl, lysates were cleared of insoluble materials by low-speed centrifugation and subsequently immunoprecipitated with antibodies that target: (a) aPKCs (rabbit polyclonal antiserum from Santa Cruz Biotechnologies (Santa Cruz, Calif.) that recognizes C-termini of both PKC-λ and PKC-ζ); and (b) Akt2 (Upstate Cell Signaling/Millipore, Billerica, Mass.). Immunoprecipitates were collected on Sepharose-AG beads (Santa Cruz Biotechnologies).
Akt2 Assay: Akt2 enzyme activity was measured with a kit obtained from Upstate Cell Signaling, as described (Standaert et al., J. Biol. Chem. 279:24929-24934, 2004; Sajan et al., J. Lipid Res. 50:1133-1145, 2009; Sajan et al., Diabetologia 52:1197-1207, 2009; Farese et al., J. Clin. Invest. 117:2289-2301, 2007). In brief, Akt2 was immunoprecipitated from lysates with rabbit polyclonal antibodies, collected on Sepharose-AG beads, and incubated as per kit directions. Akt1/2 activation was also assessed by immunoblotting for phosphorylation of serine-473.

Where [3] appears, read: Het-MλKO mice, s.c. once daily (ATM 60 mg/kg; ICAPP 0.4 mg/kg; ICAP 0.5 mg/kg).
The mark [4] stands for this setting: ICAP-treated Mλ-Het KO mice (n = 12), 0.5 mg/kg body weight/day x 8 days s.c., mean ± SEM.

T1 sequence (Q60823 whole entry): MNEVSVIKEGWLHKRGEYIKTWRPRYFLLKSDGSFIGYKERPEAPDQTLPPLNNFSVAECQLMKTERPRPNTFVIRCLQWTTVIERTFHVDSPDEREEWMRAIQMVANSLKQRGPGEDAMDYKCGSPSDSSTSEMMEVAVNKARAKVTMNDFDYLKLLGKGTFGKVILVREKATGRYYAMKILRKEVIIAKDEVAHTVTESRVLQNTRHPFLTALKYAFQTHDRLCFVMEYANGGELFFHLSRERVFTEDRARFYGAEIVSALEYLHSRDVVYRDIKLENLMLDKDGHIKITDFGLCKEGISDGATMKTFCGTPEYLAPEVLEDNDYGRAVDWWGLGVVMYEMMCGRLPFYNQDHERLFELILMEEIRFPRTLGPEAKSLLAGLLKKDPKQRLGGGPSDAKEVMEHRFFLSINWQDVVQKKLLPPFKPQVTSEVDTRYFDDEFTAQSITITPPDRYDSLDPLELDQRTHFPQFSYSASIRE

As for `NC(=O)c1ncn([C@@H]2C[C@H](COP(=O)(O)O)[C@@H](O)[C@H]2O)c1N` [ICAPP, 1H-imidazole-4-carboxamide, 5-amino-1-[2,3-dihydroxy-4-[(phosphonooxy)methyl]cyclopentyl]-[1R-(1α,2β,3β,4α)]], in test [1] (Het-MλKO mice), the hepatic triglycerides entry is listed as “marked improvements”, the “resting (basal) serum insulin levels” value is “marked improvements” and the “basal serum glucose levels (before insulin)” value is “marked improvements”. For the same compound, the “serum free fatty acids” value in test [1] (Het-MλKO mice, ICAPP 0.4 mg/kg/day s.c., 7 days) is listed as “marked improvements”. Also, the food intake entry in test [1] (Het-MλKO mice, ICAPP-treated) was “not altered”. Moreover, in test [1] (setting [3]), the abdominal fat content entry is reported as “marked improvements”, the serum cholesterol entry is on record as “marked improvements”, the serum triglycerides result is given as “marked improvements” and the “serum glucose levels following acute insulin treatment” value was “marked improvements”. In test [2] (Het-MλKO mice), the “Akt activation in adipose tissue” value is “increased significantly or trended upward” and the “Akt activation in muscle” value is “increased significantly or trended upward”.

On to `O=C([O-])CC([S][Au])C(=O)[O-]` (stereo not drawn) [ATM, aurothiomalate, reference compound], for which, in test [1] (Het-MλKO mice), the hepatic triglycerides result is listed as “decreased, virtually to normal” and the “resting (basal) serum insulin levels” value is listed as “decreased, virtually to normal”. Also, in test [1] (setting [3]), the abdominal fat content entry was “decreased, virtually to normal”; the serum cholesterol entry is listed as “decreased, virtually to normal”; the serum triglycerides entry was “decreased, virtually to normal”; the “serum glucose levels following acute insulin treatment” value is recorded as “decreased, virtually to normal”. Also, in test [2] (Het-MλKO mice), the “Akt activation in adipose tissue” value is on record as “increased or trended upward” and the “Akt activation in muscle” value is on record as “increased or trended upward”. In addition, the “Akt activation/activity in liver” value in test [2] (setting [3]) is listed as “increased or trended upward”.

`NC(=O)c1ncn([C@@H]2C[C@H](CO)[C@@H](O)[C@H]2O)c1N` [ICAP, 1H-imidazole-4-carboxamide 5-amino-1-[2,3-dihydroxy-4-[hydroxymethyl]cyclopentyl]-[1R-(1α,2β,3β,4α)]]: in test [1] (setting [3]), the abdominal fat content result is recorded as “diminished”, the serum cholesterol entry is listed as “diminished”, the serum triglycerides result is recorded as “diminished” and the “serum glucose levels following acute insulin treatment” value is “diminished”. Also, the “basal serum glucose levels (before insulin)” value in test [1] (Het-MλKO mice) is reported as “diminished”. Also, in test [1] (setting [4]), the Abdominal fat is on record as 26 ± 3.2 mg/g body weight, the “Ad lib-fed serum glucose” value is 139 ± 20 mg/dL, the serum cholesterol stood at 108 ± 10 mg/dL and the serum triglycerides was 104 ± 7 mg/dL. Besides, the “Hepatic Akt activity” value in test [2] (setting [4]) is 1151 ± 226 cpm/immunoppt.
